# Reference: patent US12509424B2, “Compound and composition as PDGF receptor kinase inhibitor” (NIPPON SHINYAKU CO., LTD., priority 2019, dated 2025)
# Assays:
# [1] = biological target: PDGFR-β (Homo sapiens (Human), UniProt P09619); test: PDGFR-β tyrosine kinase inhibitory action (HTRF KinEASE-TK); type: biochemical; details: PDGFR-β enzyme 1 ng/μL, 30° C. for 30 minutes; read-out: PDGF-β IC50
# Method in brief: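 Recombinant PDGFR-β at 1 ng/μL final with TK substrate-3-biotin in a substrate solution containing 0.6 μM ATP; buffer 50 mM HEPES pH 7.0, 5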
# [2] = system: pulmonary arterial smooth muscle cells; test: Suppression of proliferation of pulmonary arterial smooth muscle cells (PDGF-BB stimulation, BrdU); type: cell-based; details: PASMC, 24 h; healthy human derived pulmonary arterial smooth muscle cells; human PDGF-BB 10 ng/mL stimulation; BrdU uptake after 1 day; test substance final concentration 3 to 10,000 nM; read-out: Human normal PASMC proliferation suppression (PDGF stimulation_IC50)
# Method in brief: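 Test compound (final 3 to 10,000 nM) was added together with BrdU and PDGF-BB (final 10 ng/mL) to healthy human pulmonary artery smooth muscle cells held a day in 0.1% FBS. Proliferation was read after 1 day as anti-BrdU-detected BrdU incorporation.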
# Chain of PDGFR-β (P09619 33-1106): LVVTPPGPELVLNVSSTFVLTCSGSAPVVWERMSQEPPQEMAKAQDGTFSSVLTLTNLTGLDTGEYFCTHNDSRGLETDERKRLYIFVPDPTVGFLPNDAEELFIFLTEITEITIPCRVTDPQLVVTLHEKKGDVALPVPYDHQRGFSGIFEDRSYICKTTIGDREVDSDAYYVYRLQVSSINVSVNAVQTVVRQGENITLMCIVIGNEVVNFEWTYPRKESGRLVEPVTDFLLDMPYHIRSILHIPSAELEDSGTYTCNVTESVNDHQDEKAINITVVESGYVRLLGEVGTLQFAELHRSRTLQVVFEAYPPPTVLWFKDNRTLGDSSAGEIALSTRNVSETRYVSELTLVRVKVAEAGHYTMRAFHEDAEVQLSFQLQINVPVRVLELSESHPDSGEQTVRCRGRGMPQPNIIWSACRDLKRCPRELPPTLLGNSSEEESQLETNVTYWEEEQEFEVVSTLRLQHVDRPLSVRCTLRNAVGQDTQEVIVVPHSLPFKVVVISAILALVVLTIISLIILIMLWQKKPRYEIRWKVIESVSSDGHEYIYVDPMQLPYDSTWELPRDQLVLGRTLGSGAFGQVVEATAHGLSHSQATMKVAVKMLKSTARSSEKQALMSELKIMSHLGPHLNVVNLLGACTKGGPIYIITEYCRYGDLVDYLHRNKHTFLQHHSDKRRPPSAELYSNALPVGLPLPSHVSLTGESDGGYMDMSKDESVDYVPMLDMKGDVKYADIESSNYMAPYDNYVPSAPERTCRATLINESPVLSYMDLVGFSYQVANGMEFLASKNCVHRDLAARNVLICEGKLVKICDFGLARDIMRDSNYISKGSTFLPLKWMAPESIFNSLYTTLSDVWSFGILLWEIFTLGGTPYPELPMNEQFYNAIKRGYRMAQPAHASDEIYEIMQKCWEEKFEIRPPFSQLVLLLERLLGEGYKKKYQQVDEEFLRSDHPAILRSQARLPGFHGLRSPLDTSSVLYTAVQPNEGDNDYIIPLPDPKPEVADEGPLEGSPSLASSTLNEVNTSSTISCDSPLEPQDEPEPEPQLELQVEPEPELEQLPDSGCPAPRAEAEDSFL
IC50 [1] [µM],Compound,IC50 [2] [µM]
0.18,"Cc1ncc(C(=O)N[C@H]2CCCC[C@@H]2O)cc1CNc1cncc(C#CC2CC2)c1 [Example 157, 5-({[5-(cyclopropylethynyl)pyridin-3-yl]amino}methyl)-N-[(1S,2S)-2-hydroxycyclohexyl]-6-methylpyridine-3-carboxamide]",0.052
0.21,"O=C(N[C@H]1CCCC[C@@H]1O)c1ccc(Cl)c(OCc2cncc(-c3ncccn3)c2)c1 [Example 167, 4-chloro-N-[(1S,2S)-2-hydroxycyclohexyl]-3-{[5-(pyrimidin-2-yl)pyridin-3-yl]methoxy}benzamide]",0.21
0.2,"O=C(N[C@H]1CCCC[C@@H]1O)c1ccc(Cl)c(COc2cncc(-c3ncccn3)c2)c1 [Example 170, 4-chloro-N-[(1S,2S)-2-hydroxycyclohexyl]-3-({[5-(pyrimidin-2-yl)pyridin-3-yl]oxy}methyl)benzamide]",0.13
0.015,"O=C(N[C@H]1CCCC[C@@H]1O)c1ccc(F)c(/C=C(\F)c2cncc(-c3ccccn3)c2)c1 [Example 177, 3-[(Z)-2-([2,3′-bipyridin]-5′-yl)-2-fluoroethenyl]-4-fluoro-N-[(1S,2S)-2-hydroxycyclohexyl]benzamide]",0.011
0.026,"O=C(N[C@H]1CCCC[C@@H]1O)c1ccc(F)c(/C=C(\F)c2cncc(-c3ncccn3)c2)c1 [Example 178, 4-fluoro-3-{(Z)-2-fluoro-2-[5-(pyrimidin-2-yl)pyridin-3-yl]ethenyl}-N-[(1S,2S)-2-hydroxycyclohexyl]benzamide]",0.044
0.0059,"Cc1ccc(C(=O)N[C@H]2CCCC[C@@H]2O)cc1/C=C(\F)c1cnc2cccnn12 [Example 179, 3-[(Z)-2-fluoro-2-(imidazo[1,2-b]pyridazin-3-yl)ethenyl]-N-[(1S,2S)-2-hydroxycyclohexyl]-4-methylbenzamide]",0.02
0.016,"Cc1ncc(C(=O)N[C@H]2CCCC[C@@H]2O)cc1/C=C(\F)c1cncc(-c2ccccn2)c1 [Example 180, 5-[(Z)-2-([2,3′-bipyridin]-5′-yl)-2-fluoroethenyl]-N-[(1S,2S)-2-hydroxycyclohexyl]-6-methylpyridine-3-carboxamide]",0.032
0.1,"Cc1ccc(C(=O)N[C@H]2CCCC[C@@H]2O)cc1/C=C(\F)c1cncc(CN2CCN(C)CC2)c1 [Example 181, 3-[(Z)-2-fluoro-2-{5-[(4-methylpiperazin-1-yl)methyl]pyridin-3-yl}ethenyl]-N-[(1S,2S)-2-hydroxycyclohexyl]-4-methylbenzamide]",0.5
0.033,"Cc1ccc(C(=O)N[C@H]2CCCC[C@@H]2O)cc1/C=C(\F)c1cncc(CN2CCOCC2)c1 [Example 182, 3-[(Z)-2-fluoro-2-{5-[(morpholin-4-yl)methyl]pyridin-3-yl}ethenyl]-N-[(1S,2S)-2-hydroxycyclohexyl]-4-methylbenzamide]",0.19
0.03,"Cc1ccc(C(=O)N[C@H]2CCCC[C@@H]2O)cc1/C=C(\F)c1ccc(NCC2CC2)nc1 [Example 183, 3-[(Z)-2-{6-[(cyclopropylmethyl)amino]pyridin-3-yl}-2-fluoroethenyl]-N-[(1S,2S)-2-hydroxycyclohexyl]-4-methylbenzamide]",0.024
0.051,"O=C(N[C@H]1CCCC[C@@H]1O)c1ccc(F)c(/C=C(\F)c2cncc(N3CCOCC3)c2)c1 [Example 184, 4-fluoro-3-{(Z)-2-fluoro-2-[5-(morpholin-4-yl)pyridin-3-yl]ethenyl}-N-[(1S,2S)-2-hydroxycyclohexyl]benzamide]",0.082
0.0051,"O=C(N[C@H]1CCCC[C@@H]1O)c1ccc(F)c(/C=C(\F)c2cncc(NC3CCOCC3)c2)c1 [Example 185, 4-fluoro-3-[(Z)-2-fluoro-2-{5-[(oxan-4-yl)amino]pyridin-3-yl}ethenyl]-N-[(1S,2S)-2-hydroxycyclohexyl]benzamide]",0.028
0.15,"CN1CCN(Cc2cncc(/C(F)=C/c3cc(C(=O)N[C@H]4CCCC[C@@H]4O)ccc3F)c2)CC1 [Example 186, 4-fluoro-3-[(Z)-2-fluoro-2-{5-[(4-methylpiperazin-1-yl)methyl]pyridin-3-yl}ethenyl]-N-[(1S,2S)-2-hydroxycyclohexyl]benzamide]",0.22
0.014,"Cc1ncc(C(=O)N[C@H]2CCCC[C@@H]2O)cc1/C=C(\F)c1cncc(OCC2CC2)c1 [Example 187, 5-{(Z)-2-[5-(cyclopropylmethoxy)pyridin-3-yl]-2-fluoroethenyl}-N-[(1S,2S)-2-hydroxycyclohexyl]-6-methylpyridine-3-carboxamide]",0.02
0.068,"Cc1ncc(C(=O)N[C@H]2CCCC[C@@H]2O)cc1/C=C(\F)c1cncc(N2CCOCC2)c1 [Example 188, 5-{(Z)-2-fluoro-2-[5-(morpholin-4-yl)pyridin-3-yl]ethenyl}-N-[(1S,2S)-2-hydroxycyclohexyl]-6-methylpyridine-3-carboxamide]",0.06
0.2,"Cc1ncc(C(=O)N[C@H]2CCCC[C@@H]2O)cc1/C=C(\F)c1ccc(N)nc1 [Example 189, 5-[(Z)-2-(6-aminopyridin-3-yl)-2-fluoroethenyl]-N-[(1S,2S)-2-hydroxycyclohexyl]-6-methylpyridine-3-carboxamide]",0.09
0.11,"Cc1ncc(C(=O)N[C@H]2CCCC[C@@H]2O)cc1/C=C(\F)c1cnc(N)nc1 [Example 190, 5-[(Z)-2-(2-aminopyrimidin-5-yl)-2-fluoroethenyl]-N-[(1S,2S)-2-hydroxycyclohexyl]-6-methylpyridine-3-carboxamide]",0.11
0.035,"Nc1ccc(/C(F)=C/c2cc(C(=O)N[C@H]3CCCC[C@@H]3O)ccc2F)cn1 [Example 191, 3-[(Z)-2-(6-aminopyridin-3-yl)-2-fluoroethenyl]-4-fluoro-N-[(1S,2S)-2-hydroxycyclohexyl]benzamide]",0.029
0.029,"Nc1ncc(/C(F)=C/c2cc(C(=O)N[C@H]3CCCC[C@@H]3O)ccc2F)cn1 [Example 192, 3-[(Z)-2-(2-aminopyrimidin-5-yl)-2-fluoroethenyl]-4-fluoro-N-[(1S,2S)-2-hydroxycyclohexyl]benzamide]",0.024
0.001,"Cc1ccc(C(=O)N[C@H]2CCCC[C@@H]2O)cc1/C=C(\F)c1cncc(NC2CCN(C)CC2)c1 [Example 193, 3-[(Z)-2-fluoro-2-{5-[(1-methylpiperidin-4-yl)amino]pyridin-3-yl}ethenyl]-N-[(1S,2S)-2-hydroxycyclohexyl]-4-methylbenzamide]",0.018
0.035,"CCN1CCN(Cc2cncc(/C(F)=C/c3cc(C(=O)N[C@H]4CCCC[C@@H]4O)ccc3C)c2)CC1 [Example 194, 3-[(Z)-2-{5-[(4-ethylpiperazin-1-yl)methyl]pyridin-3-yl}-2-fluoroethenyl]-N-[(1S,2S)-2-hydroxycyclohexyl]-4-methylbenzamide]",0.074
0.019,"Cc1ncc(C(=O)N[C@H]2CCCC[C@@H]2O)cc1/C=C(\F)c1cncc(NC2COC2)c1 [Example 195, 5-[(Z)-2-fluoro-2-{5-[(oxetan-3-yl)amino]pyridin-3-yl}ethenyl]-N-[(1S,2S)-2-hydroxycyclohexyl]-6-methylpyridine-3-carboxamide]",0.026
0.026,"O=C(N[C@H]1CCCC[C@@H]1O)c1ccc(F)c(/C=C(\F)c2cncc(NC3COC3)c2)c1 [Example 196, 4-fluoro-3-[(Z)-2-fluoro-2-{5-[(oxetan-3-yl)amino]pyridin-3-yl}ethenyl]-N-[(1S,2S)-2-hydroxycyclohexyl]benzamide]",0.031
0.12,"Cc1ccc(C(=O)N[C@H]2CCCC[C@@H]2O)cc1/C=C(\F)c1ccc(NCCN(C)C)nc1 [Example 197, 3-[(Z)-2-(6-{[2-(dimethylamino)ethyl]amino}pyridin-3-yl)-2-fluoroethenyl]-N-[(1S,2S)-2-hydroxycyclohexyl]-4-methylbenzamide]",0.11
0.0072,"Cc1ccc(C(=O)N[C@H]2CCCC[C@@H]2O)cc1/C=C(\F)c1cncc(NCCN(C)C)c1 [Example 198, 3-[(Z)-2-(5-{[2-(dimethylamino)ethyl]amino}pyridin-3-yl)-2-fluoroethenyl]-N-[(1S,2S)-2-hydroxycyclohexyl]-4-methylbenzamide]",0.039
0.052,"Cc1ncc(C(=O)N[C@H]2CCCC[C@@H]2O)cc1/C=C(\F)c1ccc(NCC2CC2)nc1 [Example 199, 5-[(Z)-2-{6-[(cyclopropylmethyl)amino]pyridin-3-yl}-2-fluoroethenyl]-N-[(1S,2S)-2-hydroxycyclohexyl]-6-methylpyridine-3-carboxamide]",0.07
0.016,"Cc1ccc(C(=O)N[C@H]2c3ccccc3C[C@@H]2O)cc1/C=C(\F)c1cncc(CN2CCN(C)CC2)c1 [Example 200, 3-[(Z)-2-fluoro-2-{5-[(4-methylpiperazin-1-yl)methyl]pyridin-3-yl}ethenyl]-N-[(1S,2S)-2-hydroxy-2,3-dihydro-1H-inden-1-yl]-4-methylbenzamide]",0.12
0.038,"Cc1ccc(C(=O)NCC(O)C(C)(C)C)cc1/C=C(\F)c1cncc(CN2CCN(C)CC2)c1 (centres unmarked) [Example 201, 3-[(Z)-2-fluoro-2-{5-[(4-methylpiperazin-1-yl)methyl]pyridin-3-yl}ethenyl]-N-(2-hydroxy-3,3-dimethylbutyl)-4-methylbenzamide]",0.12
